Measured values: patent publication US12404285B2, “KRAS G12D proteolysis targeting chimeras” (PAQ Therapeutics Inc., priority 2022, dated 2025)

Each molecule was assayed against T1, KRAS (G12D)-HiBit in AsPc-1-KRAS (G12D)-HiBit-KI cell (Homo sapiens, UniProt P01116, G12D) (assay: G12D HiBit assay). Details: 24 hours compound treatment, absolute DC50, read-out: Average PHA DC50.
T1 construct: host or cells: AsPc-1-KRAS (G12D)-HiBit-KI cells (knock-in line)
Type: cell-based
Description: Day 1. Prepared the culture medium for AsPc-1-KRAS (G12D)-HiBit-KI cell (Pharmaron) using RPMI 1640 medium (Gibco, 11875093) with 10% FBS (Gibco, 10099141C) and 1% Penicillin-Streptomycin Liquid (Solarbio, P1400). Cultivated cells in T-75 flasks in a cell culture incubator (Thermo, Model: 371) at 37° C., 5% CO2. Allowed cells to reach approximately 80% confluence before splitting. Rinsed cultivated cells in T-75 flasks with 5 mL PBS (Solarbio, P1020-500). Aspirated off PBS, added 1.5 mL trypsin (Invitrogen, #25300), and incubated at 37° C. for approximately 5 minutes or until the cells detached. Inactivated trypsin by adding excessive serum containing medium. Harvested the cells from flask into cell culture medium and counted the cell number. Seeded AsPc-1-KRAS (G12D)-HiBit-KI cell into 384-well plate (Corning, 3570) (cell density: 5×10^3 cells/well in 50 μL medium) in RPMI 1640 medium and incubated overnight at 37° C. and 5% CO2.
Day 2. Test compounds were dissolved at 0.3 mM in DMSO (Solarbio, D8371) as stock solution. Transferred 45 μL of stock solution to a 384-well plate (Labcyte, 001-14555). Performed 3-fold, 10-points dilution via transferring 15 μL compound into 30 μL DMSO by using TECAN liquid handler (TECAN, Freedom EVO200). The compound plates were spin at room temperature at 1,000 RPM for 1 minute (Eppendorf, 5810R). Transferred 50 nL of diluted compounds from compound source plate into the cell plate by Echo (Labcyte, 550) to achieve final concentrations of 300 nM, 100 nM, 33.3 nM, 11.1 nM, 3.7 nM, 1.23 nM, 0.41 nM, 0.14 nM, 0.046 nM and 0.015 nM, then mixed the cell plate on a plate shaker (Yoning, WZ-4) for 15 seconds at 900 rpm. After compound treatment for 24 hours, removed the plate from incubators and equilibrated at room temperature for 15 minutes. Prepared the HiBit reagent (Promega, N3040) by mixing 10 mL of Nano-Glo®-HiBiT Lytic Buffer with 200 μL of Nano-Glo®-HiBiT Lytic Substrate and 100 μL of LgBiT Protein. Added 20 μL of HiBit reagent into each well of the cell plate and spun the plates at room temperature at 1,000 RPM for 1 minute. Then shook the plates at 600 RPM at room temperature for 20 minutes using a plate shaker (Yoning, WZ-4), and read the luminescence by EnVision (PerkinElmer, 2105-0020).
The inhibition activity was calculated using the following formula: HiBit-G12D level (%)=100%×[Luminescence(Sample)/Mean of Luminescence (HC)] where HC (high control) is obtained from cells treated with 0.1% DMSO only.
Absolute DC50 was calculated by fitting the curve using GraphPad Prism v8.0.2 (analyis 263): Y=Bottom+(100−Bottom)/(1+10^(Log AbsoluteIC50−X)*HillSlope+log((100−Bottom)/(50−Bottom)−1)))
The data are reported in Table 3, wherein “+++”=DC50 less than 100 nM, “++”=DC50 greater than or equal to 100 nM and less than 300 nM; “+”=DC50 greater than or equal to 300 nM.

T1 sequence (P01116 1-188 isoform P01116-2 G12D): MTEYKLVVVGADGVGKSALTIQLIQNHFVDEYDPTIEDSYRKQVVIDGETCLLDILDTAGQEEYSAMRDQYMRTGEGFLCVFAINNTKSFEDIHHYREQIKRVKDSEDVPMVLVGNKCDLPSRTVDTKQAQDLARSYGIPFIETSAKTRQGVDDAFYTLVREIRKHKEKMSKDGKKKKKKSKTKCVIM

| DC50 [nM] | Structure (SMILES) |
| --- | --- |
| < 100 | C#Cc1c(F)ccc2cccc(-c3ncc4c(N5CC6CCC(C5)N6)nc(OC[C@@]56CCCN5[C@H](COC(=O)N5CCC(OC7CCN(Cc8ccc9c(c8)n(C)c(=O)n9C8CCC(=O)NC8=O)CC7)CC5)CC6)nc4c3F)c12 (stereo partly shown) [Compound 52] |
| < 100 | C#Cc1c(F)ccc2cccc(-c3ncc4c(N5CC6CCC(C5)N6)nc(OC[C@@]56CCCN5[C@H](COC(=O)N5CCC7(CC5)CC(CCc5cccc8c5n(C)c(=O)n8C5CCC(=O)NC5=O)C7)CC6)nc4c3F)c12 (stereo partly drawn) [Compound 124, [(3S,8S)-8-[[4-(3,8-Diazabicyclo[3.2.1]octan-3-yl)-7-(8-ethynyl-7-fluoro-1-naphthyl)-8-fluoro-pyrido[4,3-d]pyrimidin-2-yl]oxymethyl]-1,2,3,5,6,7-hexahydropyrrolizin-3-yl]methyl 2-[2-[1-(2,6-dioxo-3-piperidyl)-3-methyl-2-oxo-benzimidazol-4-yl]ethyl]-7-azaspiro[3.5]nonane-7-carboxylate] |
| < 100 | C#Cc1c(F)ccc2cccc(-c3ncc4c(N5CC6CCC(C5)N6)nc(OC[C@@]56CCCN5[C@H](COC(=O)N5CCC(C7CCN(Cc8ccc9c(c8)n(C)c(=O)n9C8CCC(=O)NC8=O)CC7)CC5)CC6)nc4c3F)c12 (stereo partly drawn) [Compound 55, [(3S,8S)-8-[[4-(3,8-Diazabicyclo[3.2.1]octan-3-yl)-7-(8-ethynyl-7-fluoro-1-naphthyl)-8-fluoro-pyrido[4,3-d]pyrimidin-2-yl]oxymethyl]-1,2,3,5,6,7-hexahydropyrrolizin-3-yl]methyl 4-[1-[[1-(2,6-dioxo-3-piperidyl)-3-methyl-2-oxo-benzimidazol-5-yl]methyl]-4-piperidyl]piperidine-1-carboxylate] |
| ≥ 300 | C#Cc1c(F)ccc2cccc(-c3ncc4c(N5CC6CCC(C5)N6)nc(OC[C@@]56CCCN5[C@H](COC(=O)N5CCC(C7CCN(c8ccc9c(c8)n(C)c(=O)n9C8CCC(=O)NC8=O)CC7)CC5)CC6)nc4c3F)c12 (stereo partly shown) [Compound 70] |
| < 100 | C#Cc1c(F)ccc2cccc(-c3ncc4c(N5CC6CCC(C5)N6)nc(OC[C@@]56CCCN5[C@H](COC(=O)N5CC(COC7CCN(c8ccc9c(c8)n(C)c(=O)n9C8CCC(=O)NC8=O)CC7)C5)CC6)nc4c3F)c12 (stereo partly drawn) [Compound 104, [(3S,8S)-8-[[4-(3,8-Diazabicyclo[3.2.1]octan-3-yl)-7-(8-ethynyl-7-fluoro-1-naphthyl)-8-fluoro-pyrido[4,3-d]pyrimidin-2-yl]oxymethyl]-1,2,3,5,6,7-hexahydropyrrolizin-3-yl]methyl 3-[[1-[1-(2,6-dioxo-3-piperidyl)-3-methyl-2-oxo-benzimidazol-5-yl]-4-piperidyl]oxymethyl]azetidine-1-carboxylate] |
| < 100 | C#Cc1c(F)ccc2cccc(-c3ncc4c(N5CC6CCC(C5)N6)nc(OC[C@@]56CCCN5[C@H](COC(=O)N5CCC7(CC5)CN(CCCc5cccc8c5n(C)c(=O)n8C5CCC(=O)NC5=O)CCO7)CC6)nc4c3F)c12 (stereo partly shown) [Compound 40] |

Continued, molecule first:

| Structure (SMILES) | DC50 [nM] |
| --- | --- |
| C#Cc1c(F)ccc2cccc(-c3ncc4c(N5CC6CCC(C5)N6)nc(OC[C@@]56CCCN5[C@H](COC(=O)N5CCC(CN7CCN(c8cccc9c8n(C)c(=O)n9C8CCC(=O)NC8=O)CC7)CC5)CC6)nc4c3F)c12 (stereo partly drawn) [Compound 112, [(3S,8S)-8-[[4-(3,8-Diazabicyclo[3.2.1]octan-3-yl)-7-(8-ethynyl-7-fluoro-1-naphthyl)-8-fluoro-pyrido[4,3-d]pyrimidin-2-yl]oxymethyl]-1,2,3,5,6,7-hexahydropyrrolizin-3-yl]methyl 4-[[4-[1-(2,6-dioxo-3-piperidyl)-3-methyl-2-oxo-benzimidazol-4-yl]piperazin-1-yl]methyl]piperidine-1-carboxylate] | < 100 |
| C#Cc1c(F)ccc2cccc(-c3ncc4c(N5CC6CCC(C5)N6)nc(OC[C@@]56CCCN5[C@H](COC(=O)N5CCC(CCN7CCN(Cc8cccc9c8n(C)c(=O)n9C8CCC(=O)NC8=O)CC7)CC5)CC6)nc4c3F)c12 (stereo partly drawn) [Compound 84, [(3S,8S)-8-[[4-(3,8-Diazabicyclo[3.2.1]octan-3-yl)-7-(8-ethynyl-7-fluoro-1-naphthyl)-8-fluoro-pyrido[4,3-d]pyrimidin-2-yl]oxymethyl]-1,2,3,5,6,7-hexahydropyrrolizin-3-yl]methyl4-[2-[4-[[1-(2,6-dioxo-3-piperidyl)-3-methyl-2-oxo-benzimidazol-4-yl]methyl]piperazin-1-yl]ethyl]piperidine-1-carboxylate] | < 100 |
| C#Cc1c(F)ccc2cc(O)cc(-c3ncc4c(N5CC6CCC(C5)N6)nc(OC[C@@]56CCCN5[C@H](COC(=O)N5CCC(CN7CCC(c8ccc9c(c8)n(C)c(=O)n9C8CCC(=O)NC8=O)CC7)CC5)CC6)nc4c3F)c12 (stereo partly drawn) [Compound 82, [(3S,8S)-8-[[4-(3,8-Diazabicyclo[3.2.1]octan-3-yl)-7-(8-ethynyl-7-fluoro-3-hydroxy-1-naphthyl)-8-fluoro-pyrido[4,3-d]pyrimidin-2-yl]oxymethyl]-1,2,3,5,6,7-hexahydropyrrolizin-3-yl]methyl 4-[[4-[1-(2,6-dioxo-3-piperidyl)-3-methyl-2-oxo-benzimidazol-5-yl]-1-piperidyl]methyl] piperidine-1-carboxylate] | < 100 |
| C#Cc1c(F)ccc2cccc(-c3ncc4c(N5CC6CCC(C5)N6)nc(OC[C@@]56CCCN5[C@H](COC(=O)N5CC(CN7CCC(Oc8cccc9c8n(C)c(=O)n9C8CCC(=O)NC8=O)CC7)C5)CC6)nc4c3F)c12 (stereo partly shown) [Compound 78] | < 100 |
| C#Cc1c(F)ccc2cccc(-c3ncc4c(N5CC6CCC(C5)N6)nc(OC[C@@]56CCCN5[C@H](COC(=O)N5CCC(N7CCN(Cc8ccc9c(c8)n(C)c(=O)n9C8CCC(=O)NC8=O)CC7)CC5)CC6)nc4c3F)c12 (stereo partly drawn) [Compound 56, [(3S,8S)-8-[[4-(3,8-Diazabicyclo[3.2.1]octan-3-yl)-7-(8-ethynyl-7-fluoro-1-naphthyl)-8-fluoro-pyrido[4,3-d]pyrimidin-2-yl]oxymethyl]-1,2,3,5,6,7-hexahydropyrrolizin-3-yl]methyl 4-[4-[[1-(2,6-dioxo-3-piperidyl)-3-methyl-2-oxo-benzimidazol-5-yl]methyl]piperazin-1-yl]piperidine-1-carboxylate] | < 100 |
| C#Cc1c(F)ccc2cccc(-c3ncc4c(N5CC6CCC(C5)N6)nc(OC[C@@]56CCCN5[C@H](COC(=O)N5CCC(CCN7CCN(Cc8ccc9c(c8)n(C)c(=O)n9C8CCC(=O)NC8=O)CC7)CC5)CC6)nc4c3F)c12 (stereo partly drawn) [Compound 87, [(3S,8S)-8-[[4-(3,8-Diazabicyclo[3.2.1]octan-3-yl)-7-(8-ethynyl-7-fluoro-1-naphthyl)-8-fluoro-pyrido[4,3-d]pyrimidin-2-yl]oxymethyl]-1,2,3,5,6,7-hexahydropyrrolizin-3-yl]methyl 4-[2-[4-[[1-(2,6-dioxo-3-piperidyl)-3-methyl-2-oxo-benzimidazol-5-yl]methyl]piperazin-1-yl]ethyl]piperidine-1-carboxylate] | < 100 |
| C#Cc1c(F)ccc2cccc(-c3ncc4c(N5CC6CCC(C5)N6)nc(OC[C@@]56CCCN5[C@H](COC(=O)N5CCC(COC7CN(Cc8cccc9c8n(C)c(=O)n9C8CCC(=O)NC8=O)C7)CC5)CC6)nc4c3F)c12 (stereo partly drawn) [Compound 63, [(3S,8S)-8-[[4-(3,8-diazabicyclo[3.2.1]octan-3-yl)-7-(8-ethynyl-7-fluoro-1-naphthyl)-8-fluoro-pyrido[4,3-d]pyrimidin-2-yl]oxymethyl]-1,2,3,5,6,7-hexahydropyrrolizin-3-yl]methyl4-[[1-[[1-(2,6-dioxo-3-piperidyl)-3-methyl-2-oxo-benzimidazol-4-yl]methyl]azetidin-3-yl]oxymethyl]piperidine-1-carboxylate] | 100 to 300 |
